US12473249B2, “Aromatic compounds and pharmaceutical uses thereof” (BASF AS, priority 2018, dated 2025)
Marks after values point to notes of the source that are not given here.

Assays:
C57BL/6 mice = test: Hepatic steatosis in PN-fed C57BL/6 mice intravenously administered saline, Intralipid or Omegaven; assay type: in vivo, mouse
Experimental: Male C57BL/6 mice, 6 to 8 weeks old at initiation of the experiments, were used for all experiments. One group was fed an ad libitum diet of standard rodent chow and water. Six other groups (10 mice per group) were fed a parenteral nutrition (PN) solution ab libitum as described above.
The PN-fed groups received tail vein injections every other day of saline, Omegaven® dosed at 2.4 g/kg/day, or Intralipid® (commercial soybean oil lipid emulsion) dosed at 2.4 g/kg/day and were treated with orogastric gavage administration (every other day) of either MCT or Compound A dosed at 0.6 mmol/kg bw. Intravenous saline was isovolumetric to Intralipid® groups. MCT orogastric gavage was isovolumetric to Compound A treatment (200 μl). The 6 experimental PN diet groups are listed below: • (1) Saline (intravenous)+PN+MCT (gavage) • (2) Intralipid® (intravenous)+PN+MCT (gavage) • (3) Omegaven® (intravenous)+PN+MCT (gavage) • (4) Saline (intravenous)+PN+Compound A (gavage) • (5) Intralipid® (intravenous)+PN+Compound A (gavage) • (6) Omegaven® (intravenous)+PN+Compound A (gavage)

APOE*3Leiden mice = test: Plasma lipids in high-fat diet fed APOE*3Leiden mice; assay type: in vivo, mouse
Experimental: The APOE*3Leiden mouse expresses a variant of the human apolipoprotein E3 (APOE3), the APOE*3Leiden, in addition to the human apolipoprotein C1 (APOC1).
Studies were performed in APOE*3Leiden mice (13-15 weeks old) placed on a semi-synthetic high fat diet (24% fat w/w) with 0.25% cholesterol w/w. After a 4-week run-in period, mice were sub-divided into groups of 5 mice each and administration of Compound A, Compound B, or vehicle alone was started. Both Compound B and Compound A were administered at a dose of 0.3 mmol/kg bw/day via diet. Sunflower oil (10 ml v/w) was used as a vehicle to facilitate mixing. After 4 weeks of treatment mice were sacrificed by C02 asphyxiation and plasma cholesterol and triglycerides were measured using commercially available kits (Roche*/Hitachi©).
In a further study, performed as described above, the effects of Compound A, Compound B, and Compound C were compared with the effects of Reference Compound 1 ((Z)-3-(pent-2-en-1-yloxy)benzoic acid) and Reference Compound 2 ((Z)-4-(pent-2-en-1-yloxy)benzoic acid) on triglyceride levels. […] The results of this study are described in Example 17.

[1] = PN diet, 19 days, 0.6 mmol/kg bw by gavage, FIGS. 20-21
[2] = high-fat high-cholesterol diet, 4 weeks treatment
[3] = high-fat high-cholesterol diet, 4 weeks treatment, dose 0.1 mmol/kg bw/day

Q: With `CCCCCOc1cccc(C(=O)O)c1C` [Compound A, 2-methyl-3-(pentyloxy)benzoic acid] as the compound, how does the “development of steatosis induced by an oral PN diet (H&E stain in isolated liver sections)” value (C57BL/6 mice; PN diet with intravenous saline, Intralipid or Omegaven, 0.6 mmol/kg bw by gavage every other day, FIGS. 22-25) read?
A: The value was “prevented the development of steatosis”.

Q: And the “development of steatosis (Oil Red O stain in isolated liver sections)” value (C57BL/6 mice; PN diet with intravenous saline, Intralipid or Omegaven, 0.6 mmol/kg bw by gavage every other day, FIGS. 26-29)?
A: Its value is “prevented the development of steatosis”.

Q: What about the “quantification of lipid accumulation (Oil Red O) as compared with the chow-fed control” value (C57BL/6 mice; PN diet with intravenous saline, Intralipid or Omegaven, 0.6 mmol/kg bw by gavage, FIG. 30) of the same compound?
A: The value was “prevented the development of steatosis”.

Q: And the “normalized body mass vs any other experimental group” value (C57BL/6 mice; [1])?
A: Its value is “not significantly different”.

Q: And the “normalized kidney mass vs any other experimental group” value (C57BL/6 mice; [1])?
A: Its value is “not significantly different”.

Q: What about the “normalized liver mass vs any other experimental group” value (C57BL/6 mice; [1]) of the same compound?
A: The value was “not significantly different”.

Q: What about the “normalized spleen mass vs any other experimental group” value (C57BL/6 mice; [1]) of the same compound?
A: Its value is “not significantly different”.

Q: What about the “triglyceride levels over 4 weeks” value (APOE*3Leiden mice; further study with reference compounds, 0.3 mmol/kg bw/day, FIG. 31) of the same compound?
A: Its value is “significantly reduced”.

Q: What about the “plasma TG versus vehicle” value (APOE*3Leiden mice; [2]) of the same compound?
A: The value was “significantly reduce”.

Q: And the “total plasma cholesterol versus vehicle” value (APOE*3Leiden mice; [2])?
A: Its value is “significantly reduce”.

Q: What about the “Reduction in plasma TG vs control (%)” value (APOE*3Leiden mice; [3]) of the same compound?
A: Its value is 79*** %.

Q: And the “Reduction in plasma cholesterol vs control (%)” value (APOE*3Leiden mice; [3])?
A: The value was 30*** %.
